These results are taken from patent publication US20090233899A1, “Crystalline Modification of Cefuroximaxetil” (Gruenenthal GmbH, priority 2006, published 2009).

The data set is described as follows: Binary mixtures of the ε-modification with the α-, β- or γ-modification in methanol and acetone (relative thermodynamic stability). The class given is physicochemical.

For `CO/N=C(\C(=O)N[C@@H]1C(=O)N2C(C(=O)OC(C)OC(C)=O)=C(COC(N)=O)CS[C@H]12)c1ccco1` (stereo partly shown) [ε-modification, cefuroximaxetil], the “thermodynamic stability relative to the other crystalline modifications” value was “more stable than the α-, β- or γ-modification”.
